# How the values were obtained:
# [1] = target: PI3Kδ (Homo sapiens, UniProt O00329); experiment: Kinase kinetic assay (ATP competition, ADP-Glo); type: biochemical; conditions: varied ATP concentration
# Procedure: Kinetic analyses of PI3KCD were performed using a luminometric kinase assay varying the concentration of ATP using the ADP-Glo reagents (Promega). […] After 60 min incubation at RT, varied concentrations of ATP, 0.1mM substrate PIP2:PS were added and incubated for 60 min at 37°C. The overall rate of reaction was determined as the slope of the decreasing phase of the reaction. Each data point was collected in duplicate and kinetic parameters were obtained using Prism 5.0 (GraphPad Software, San Diego, CA).
# [2] = target: T1, AAK1 (Homo sapiens, UniProt Q2M2I8); experiment: KinomeScan; type: binding; conditions: 1uM
# T1 construct: purchased DiscoveRx KINOMEscan
# T1 sequence (Q2M2I8 whole entry): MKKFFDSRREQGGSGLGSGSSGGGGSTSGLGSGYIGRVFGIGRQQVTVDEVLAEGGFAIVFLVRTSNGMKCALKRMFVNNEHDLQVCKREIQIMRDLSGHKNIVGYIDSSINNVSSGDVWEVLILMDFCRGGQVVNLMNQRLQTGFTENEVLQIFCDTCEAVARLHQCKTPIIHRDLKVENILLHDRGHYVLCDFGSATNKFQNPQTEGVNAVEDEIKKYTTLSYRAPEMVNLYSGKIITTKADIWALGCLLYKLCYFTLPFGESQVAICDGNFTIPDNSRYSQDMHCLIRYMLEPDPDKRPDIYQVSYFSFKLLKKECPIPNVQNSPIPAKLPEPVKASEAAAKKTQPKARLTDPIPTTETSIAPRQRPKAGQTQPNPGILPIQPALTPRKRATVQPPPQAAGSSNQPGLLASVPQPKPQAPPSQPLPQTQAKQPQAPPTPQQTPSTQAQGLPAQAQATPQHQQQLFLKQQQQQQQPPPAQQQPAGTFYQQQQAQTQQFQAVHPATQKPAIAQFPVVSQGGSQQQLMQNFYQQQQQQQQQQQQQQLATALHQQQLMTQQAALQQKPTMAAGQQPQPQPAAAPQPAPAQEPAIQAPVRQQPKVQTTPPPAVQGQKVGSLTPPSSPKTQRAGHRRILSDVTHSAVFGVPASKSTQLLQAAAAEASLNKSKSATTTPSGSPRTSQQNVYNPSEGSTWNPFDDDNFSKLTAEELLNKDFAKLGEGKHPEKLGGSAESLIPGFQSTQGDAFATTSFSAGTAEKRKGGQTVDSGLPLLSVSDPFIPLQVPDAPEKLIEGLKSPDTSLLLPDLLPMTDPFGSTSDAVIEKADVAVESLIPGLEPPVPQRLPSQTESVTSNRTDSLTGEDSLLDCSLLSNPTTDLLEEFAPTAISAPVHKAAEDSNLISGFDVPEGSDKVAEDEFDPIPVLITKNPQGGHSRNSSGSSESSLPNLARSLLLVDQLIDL
# [3] = target: T2, ABL1(E255K)-phosphorylated (Homo sapiens, UniProt P00519, E255K); experiment: KinomeScan; type: binding; conditions: 1uM
# T2 construct: purchased DiscoveRx KINOMEscan
# [4] = target: T3, ABL1(Q252H)-nonphosphorylated (Homo sapiens, UniProt P00519, Q252H); experiment: KinomeScan; type: binding; conditions: 1uM
# T3 construct: purchased DiscoveRx KINOMEscan
# [5] = target: T4, ACVRL1 (Homo sapiens, UniProt P37023); experiment: KinomeScan; type: binding; conditions: 1uM
# T4 construct: purchased DiscoveRx KINOMEscan
# [6] = target: T5, ALK(L1196M) (Homo sapiens, UniProt Q9UM73, L1196M); experiment: KinomeScan; type: binding; conditions: 1uM
# T5 construct: purchased DiscoveRx KINOMEscan
# [7] = target: T6, AURKA (Homo sapiens, UniProt O14965); experiment: KinomeScan; type: binding; conditions: 1uM
# T6 construct: purchased DiscoveRx KINOMEscan
# T6 sequence (O14965 whole entry): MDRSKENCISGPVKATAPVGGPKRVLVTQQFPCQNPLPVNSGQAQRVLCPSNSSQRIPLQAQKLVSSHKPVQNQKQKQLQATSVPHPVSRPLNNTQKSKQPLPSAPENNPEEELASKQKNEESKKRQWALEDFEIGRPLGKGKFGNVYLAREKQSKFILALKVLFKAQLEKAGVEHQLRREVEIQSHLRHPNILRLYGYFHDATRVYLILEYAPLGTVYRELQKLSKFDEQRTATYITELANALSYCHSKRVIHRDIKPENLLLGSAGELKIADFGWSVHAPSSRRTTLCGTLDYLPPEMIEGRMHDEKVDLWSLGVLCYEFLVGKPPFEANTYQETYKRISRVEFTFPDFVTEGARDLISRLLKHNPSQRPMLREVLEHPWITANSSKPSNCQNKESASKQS
# [8] = target: T7, CAMK2G (Homo sapiens, UniProt Q13555); experiment: KinomeScan; type: binding; conditions: 1uM
# T7 construct: purchased DiscoveRx KINOMEscan
# [9] = target: T8, CDK7 (Homo sapiens, UniProt P50613); experiment: KinomeScan; type: binding; conditions: 1uM
# T8 construct: purchased DiscoveRx KINOMEscan
# [10] = target: T9, CLK1 (Homo sapiens, UniProt P49759); experiment: KinomeScan; type: binding; conditions: 1uM
# T9 construct: purchased DiscoveRx KINOMEscan
# [11] = target: T10, CLK3 (Homo sapiens, UniProt P49761); experiment: KinomeScan; type: binding; conditions: 1uM
# T10 construct: purchased DiscoveRx KINOMEscan
# T10 sequence (P49761 whole entry): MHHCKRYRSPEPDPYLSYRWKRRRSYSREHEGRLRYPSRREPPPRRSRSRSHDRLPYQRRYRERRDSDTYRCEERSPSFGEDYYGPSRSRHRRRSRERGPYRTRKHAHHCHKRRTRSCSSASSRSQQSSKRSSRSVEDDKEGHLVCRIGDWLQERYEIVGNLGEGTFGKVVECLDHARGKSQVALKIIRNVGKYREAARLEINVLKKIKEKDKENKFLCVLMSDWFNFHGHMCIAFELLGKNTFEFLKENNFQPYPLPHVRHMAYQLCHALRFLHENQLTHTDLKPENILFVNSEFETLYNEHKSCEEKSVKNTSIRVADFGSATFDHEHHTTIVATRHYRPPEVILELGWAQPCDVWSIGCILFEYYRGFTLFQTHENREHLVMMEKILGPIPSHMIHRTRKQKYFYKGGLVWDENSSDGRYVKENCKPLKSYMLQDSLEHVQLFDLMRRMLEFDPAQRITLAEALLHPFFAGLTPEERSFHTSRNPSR
# [12] = target: T11, CSNK1G2 (Homo sapiens, UniProt P78368); experiment: KinomeScan; type: binding; conditions: 1uM
# T11 construct: purchased DiscoveRx KINOMEscan
# [13] = target: T12, DMPK2 (Homo sapiens, UniProt Q6DT37); experiment: KinomeScan; type: binding; conditions: 1uM
# T12 construct: purchased DiscoveRx KINOMEscan
# [14] = target: T13, EPHA2 (Homo sapiens, UniProt P29317); experiment: KinomeScan; type: binding; conditions: 1uM
# T13 construct: purchased DiscoveRx KINOMEscan
# T13 sequence (P29317 24-976): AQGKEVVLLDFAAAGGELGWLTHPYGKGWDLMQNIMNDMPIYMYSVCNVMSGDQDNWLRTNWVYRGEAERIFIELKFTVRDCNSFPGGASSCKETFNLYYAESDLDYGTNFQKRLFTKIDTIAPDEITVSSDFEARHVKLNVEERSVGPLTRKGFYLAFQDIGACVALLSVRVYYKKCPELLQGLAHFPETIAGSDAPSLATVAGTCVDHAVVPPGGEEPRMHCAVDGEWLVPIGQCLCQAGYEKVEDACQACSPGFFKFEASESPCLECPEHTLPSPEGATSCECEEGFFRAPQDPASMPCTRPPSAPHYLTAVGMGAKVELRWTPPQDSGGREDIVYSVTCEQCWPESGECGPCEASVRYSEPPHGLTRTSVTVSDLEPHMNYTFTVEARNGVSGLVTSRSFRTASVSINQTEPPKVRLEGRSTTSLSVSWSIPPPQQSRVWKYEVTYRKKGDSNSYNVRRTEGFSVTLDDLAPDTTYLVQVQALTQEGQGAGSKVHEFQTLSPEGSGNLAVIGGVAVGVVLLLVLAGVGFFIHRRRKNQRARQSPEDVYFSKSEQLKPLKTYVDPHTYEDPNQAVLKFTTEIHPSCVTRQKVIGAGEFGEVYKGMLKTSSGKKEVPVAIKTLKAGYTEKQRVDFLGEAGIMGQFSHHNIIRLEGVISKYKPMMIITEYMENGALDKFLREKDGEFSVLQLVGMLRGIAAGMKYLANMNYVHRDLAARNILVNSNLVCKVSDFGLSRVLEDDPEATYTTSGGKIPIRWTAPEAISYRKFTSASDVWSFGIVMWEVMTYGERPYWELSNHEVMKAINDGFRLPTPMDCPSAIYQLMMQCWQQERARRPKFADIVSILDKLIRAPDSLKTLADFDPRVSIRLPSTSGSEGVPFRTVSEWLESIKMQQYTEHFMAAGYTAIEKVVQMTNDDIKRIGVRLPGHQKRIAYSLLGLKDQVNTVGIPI
# [15] = target: T14, EPHA5 (Homo sapiens, UniProt P54756); experiment: KinomeScan; type: binding; conditions: 1uM
# T14 construct: purchased DiscoveRx KINOMEscan
# [16] = target: T15, FAK (Homo sapiens, UniProt Q05397); experiment: KinomeScan; type: binding; conditions: 1uM
# T15 construct: purchased DiscoveRx KINOMEscan
# [17] = target: T16, FLT3(D835Y) (Homo sapiens, UniProt P36888, D835Y); experiment: KinomeScan; type: binding; conditions: 1uM
# T16 construct: purchased DiscoveRx KINOMEscan
# [18] = target: T17, GCN2(Kin.Dom.2,S808G) (Homo sapiens, UniProt Q9P2K8, S808G); experiment: KinomeScan; type: binding; conditions: 1uM
# T17 construct: GCN2(Kin.Dom.2,S808G); purchased DiscoveRx KINOMEscan
# [19] = target: T18, GRK4 (Homo sapiens, UniProt P32298); experiment: KinomeScan; type: binding; conditions: 1uM
# T18 construct: purchased DiscoveRx KINOMEscan
# [20] = target: T19, MAP3K15 (Homo sapiens, UniProt Q6ZN16); experiment: KinomeScan; type: binding; conditions: 1uM
# T19 construct: purchased DiscoveRx KINOMEscan
# [21] = target: T20, MST3 (Homo sapiens, UniProt Q9Y6E0); experiment: KinomeScan; type: binding; conditions: 1uM
# T20 construct: purchased DiscoveRx KINOMEscan
# [22] = target: T21, NEK1 (Homo sapiens, UniProt Q96PY6); experiment: KinomeScan; type: binding; conditions: 1uM
# T21 construct: purchased DiscoveRx KINOMEscan
# [23] = target: T22, NEK3 (Homo sapiens, UniProt P51956); experiment: KinomeScan; type: binding; conditions: 1uM
# T22 construct: purchased DiscoveRx KINOMEscan
# [24] = target: T23, NEK6 (Homo sapiens, UniProt Q9HC98); experiment: KinomeScan; type: binding; conditions: 1uM
# T23 construct: purchased DiscoveRx KINOMEscan
# [25] = target: T24, PAK6 (Homo sapiens, UniProt Q9NQU5); experiment: KinomeScan; type: binding; conditions: 1uM
# T24 construct: purchased DiscoveRx KINOMEscan
# [26] = target: T25, PIK3CA (Homo sapiens, UniProt P42336); experiment: KinomeScan; type: binding; conditions: 1uM
# T25 construct: purchased DiscoveRx KINOMEscan
# T25 sequence (P42336 whole entry): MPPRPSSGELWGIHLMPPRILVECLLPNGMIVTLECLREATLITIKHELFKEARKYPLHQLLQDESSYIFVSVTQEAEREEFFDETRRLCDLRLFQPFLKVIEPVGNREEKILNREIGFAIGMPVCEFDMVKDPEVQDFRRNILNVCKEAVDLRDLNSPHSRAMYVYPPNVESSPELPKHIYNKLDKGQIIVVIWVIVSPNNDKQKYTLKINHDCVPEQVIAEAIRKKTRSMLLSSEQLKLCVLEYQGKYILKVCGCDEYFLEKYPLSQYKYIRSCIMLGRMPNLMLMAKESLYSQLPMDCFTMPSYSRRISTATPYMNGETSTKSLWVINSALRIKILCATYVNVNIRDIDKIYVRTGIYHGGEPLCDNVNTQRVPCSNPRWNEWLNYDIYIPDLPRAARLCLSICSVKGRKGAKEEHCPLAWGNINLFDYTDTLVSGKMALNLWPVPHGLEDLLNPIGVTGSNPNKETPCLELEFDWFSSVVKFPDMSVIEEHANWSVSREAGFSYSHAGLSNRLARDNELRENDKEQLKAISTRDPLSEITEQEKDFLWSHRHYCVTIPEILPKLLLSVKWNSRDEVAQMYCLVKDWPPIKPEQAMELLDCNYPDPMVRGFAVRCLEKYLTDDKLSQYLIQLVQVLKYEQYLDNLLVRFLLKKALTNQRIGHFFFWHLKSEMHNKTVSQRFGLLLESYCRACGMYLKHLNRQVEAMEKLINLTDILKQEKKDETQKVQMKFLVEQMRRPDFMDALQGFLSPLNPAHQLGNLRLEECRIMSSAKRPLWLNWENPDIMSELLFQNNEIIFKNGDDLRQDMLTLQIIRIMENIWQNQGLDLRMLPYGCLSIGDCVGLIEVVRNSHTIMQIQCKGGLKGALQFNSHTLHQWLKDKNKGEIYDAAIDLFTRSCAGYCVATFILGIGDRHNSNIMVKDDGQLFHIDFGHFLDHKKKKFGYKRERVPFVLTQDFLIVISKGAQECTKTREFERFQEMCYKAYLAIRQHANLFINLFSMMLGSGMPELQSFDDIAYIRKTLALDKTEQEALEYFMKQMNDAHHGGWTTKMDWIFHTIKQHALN
# [27] = target: T26, PIK3CA(H1047Y) (Homo sapiens, UniProt P42336, H1047Y); experiment: KinomeScan; type: binding; conditions: 1uM
# T26 construct: purchased DiscoveRx KINOMEscan
# T26 sequence (P42336 whole entry H1047Y): as the sequence (P42336 whole entry) above, with H1047Y counted along it
# [28] = target: T27, PIK3CA(M1043I) (Homo sapiens, UniProt P42336, M1043I); experiment: KinomeScan; type: binding; conditions: 1uM
# T27 construct: purchased DiscoveRx KINOMEscan
# T27 sequence (P42336 whole entry M1043I): as the sequence (P42336 whole entry) above, with M1043I counted along it
# [29] = target: T28, PYK2 (Homo sapiens, UniProt Q14289); experiment: KinomeScan; type: binding; conditions: 1uM
# T28 construct: purchased DiscoveRx KINOMEscan
# [30] = target: T29, RIPK1 (Homo sapiens, UniProt Q13546); experiment: KinomeScan; type: binding; conditions: 1uM
# T29 construct: purchased DiscoveRx KINOMEscan
# [31] = target: T30, RIPK5 (Homo sapiens, UniProt Q6XUX3); experiment: KinomeScan; type: binding; conditions: 1uM
# T30 construct: purchased DiscoveRx KINOMEscan
# T30 sequence (Q6XUX3 whole entry): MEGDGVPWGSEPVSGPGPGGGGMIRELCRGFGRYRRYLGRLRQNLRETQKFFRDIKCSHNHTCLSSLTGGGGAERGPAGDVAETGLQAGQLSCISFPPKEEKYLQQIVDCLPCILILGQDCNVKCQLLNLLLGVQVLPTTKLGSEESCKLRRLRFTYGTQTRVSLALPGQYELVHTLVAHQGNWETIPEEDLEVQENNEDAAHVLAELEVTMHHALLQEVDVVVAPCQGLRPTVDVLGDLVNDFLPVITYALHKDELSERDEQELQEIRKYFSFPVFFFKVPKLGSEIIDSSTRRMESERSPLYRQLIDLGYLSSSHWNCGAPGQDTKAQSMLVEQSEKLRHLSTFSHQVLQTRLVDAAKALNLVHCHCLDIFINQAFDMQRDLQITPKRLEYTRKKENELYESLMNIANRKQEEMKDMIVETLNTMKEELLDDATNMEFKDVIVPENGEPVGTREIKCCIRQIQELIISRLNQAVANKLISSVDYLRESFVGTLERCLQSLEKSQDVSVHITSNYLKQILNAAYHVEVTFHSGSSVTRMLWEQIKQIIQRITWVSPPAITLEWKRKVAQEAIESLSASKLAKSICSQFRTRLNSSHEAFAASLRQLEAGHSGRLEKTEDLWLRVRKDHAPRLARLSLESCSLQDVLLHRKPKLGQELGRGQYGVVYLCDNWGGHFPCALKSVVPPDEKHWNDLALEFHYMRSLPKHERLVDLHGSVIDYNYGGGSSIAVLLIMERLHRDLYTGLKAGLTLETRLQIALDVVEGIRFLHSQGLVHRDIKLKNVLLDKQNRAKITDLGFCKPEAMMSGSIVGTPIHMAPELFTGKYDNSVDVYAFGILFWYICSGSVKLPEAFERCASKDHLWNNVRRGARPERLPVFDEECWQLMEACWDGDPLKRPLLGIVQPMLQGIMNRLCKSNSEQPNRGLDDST
# [32] = target: T31, SgK110 (Homo sapiens, UniProt P0C264); experiment: KinomeScan; type: binding; conditions: 1uM
# T31 construct: purchased DiscoveRx KINOMEscan
# [33] = target: T32, STK33 (Homo sapiens, UniProt Q9BYT3); experiment: KinomeScan; type: binding; conditions: 1uM
# T32 construct: purchased DiscoveRx KINOMEscan
# [34] = target: T33, STK39 (Homo sapiens, UniProt Q9UEW8); experiment: KinomeScan; type: binding; conditions: 1uM
# T33 construct: purchased DiscoveRx KINOMEscan
# [35] = target: T34, TYRO3 (Homo sapiens, UniProt Q06418); experiment: KinomeScan; type: binding; conditions: 1uM
# T34 construct: purchased DiscoveRx KINOMEscan
# [36] = target: T35, YSK4 (Homo sapiens, UniProt Q56UN5); experiment: KinomeScan; type: binding; conditions: 1uM
# T35 construct: purchased DiscoveRx KINOMEscan
# [37] = target: T36, PIK3C2B (Homo sapiens, UniProt O00750); experiment: ADP-glo biochemical assay
# T36 construct: purchased Invitrogen
# Procedure: (§1) The reaction in each tube was started immediately by adding ATP and kept going for an hour under 37°C. After the tube cooled for 5 minutes at room temperature, 5 μL solvent reactions were carried out in a 384-well plate. Then 5 μL of ADP-Glo™ reagent was added into each well to stop the reaction and consume the remaining ADP within 40 minutes. At the end, 10 μL of kinase detection reagent was added into the well and incubated for 30 minutes to produce a luminescence signal. Luminescence signal was measured with an automated plate reader (Perkin-Elmer Envision) and each measurement was performed in triplicate.
# [38] = target: T37, Vps34 (Homo sapiens, UniProt Q8NEB9); experiment: ADP-glo biochemical assay
# T37 construct: purchased Invitrogen
# Procedure: as §1
# [39] = tested on: LC3B II; experiment: Autophagy (western-blot); type: cell-based, human; conditions: 12 hours
# Source text: Cells were then washed in PBS and lysed in cell lysis buffer and detected by western-blot using LC3B, GAPDH antibody (Cell signaling Technology).
compound,measurement,setting,value
Cc1nc(NC(=O)[C@@H](N)C(C)C)sc1-c1cnc(Cl)c(NS(=O)(=O)c2ccccc2)c1 [PI3KD-IN-015],binding kinetics / mode of inhibition,[1],ATP competitive inhibitor
same,KinomeScan AAK1,[2],100
same,KinomeScan ABL1(E255K)-phosphorylated,[3],77
same,KinomeScan ABL1(Q252H)-nonphosphorylated,[4],100
same,KinomeScan ACVRL1,[5],100
same,KinomeScan ALK(L1196M),[6],100
same,KinomeScan AURKA,[7],93
same,KinomeScan CAMK2G,[8],100
same,KinomeScan CDK7,[9],100
same,KinomeScan CLK1,[10],100
same,KinomeScan CLK3,[11],100
same,KinomeScan CSNK1G2,[12],100
same,KinomeScan DMPK2,[13],100
same,KinomeScan EPHA2,[14],100
same,KinomeScan EPHA5,[15],100
same,KinomeScan FAK,[16],80
same,KinomeScan FLT3(D835Y),[17],98
same,"KinomeScan GCN2(Kin.Dom.2,S808G)",[18],100
same,KinomeScan GRK4,[19],92
same,KinomeScan MAP3K15,[20],80
same,KinomeScan MST3,[21],96
same,KinomeScan NEK1,[22],100
same,KinomeScan NEK3,[23],100
same,KinomeScan NEK6,[24],100
same,KinomeScan PAK6,[25],91
same,KinomeScan PIK3CA,[26],7.2
same,KinomeScan PIK3CA(H1047Y),[27],4.4
same,KinomeScan PIK3CA(M1043I),[28],0
same,KinomeScan PYK2,[29],95
same,KinomeScan RIPK1,[30],100
same,KinomeScan RIPK5,[31],83
same,KinomeScan SgK110,[32],100
same,KinomeScan STK33,[33],88
same,KinomeScan STK39,[34],100
same,KinomeScan TYRO3,[35],100
same,KinomeScan YSK4,[36],100
same,IC50,[37],> 10000 nM
same,IC50,[38],280 nM
same,autophagy induction (LC3B II),[39]; HT cells and MEC-1 cells,significantly increased the production of LC3B II
same,autophagy induction,[39]; MOLM-13 cell,no apparent autophagy induction

# Source: publication PMC5078040 (Oncotarget, 2016)
